Patent publication US20180147223A1 (priority 2016, published 2018)
Values joined by “and” are separate entries in the source; they are usually repeats but may differ in a detail not shown here. Equal values may be shown once.

Tests used:
BoNT/A = BoNT/A (Clostridium botulinum, UniProt P0DPI0); assay type: cell-based, C. botulinum
LC of BoNT/A = LC of BoNT/A (Clostridium botulinum, UniProt P0DPI0); test: biochemical; assay type: biochemical, C. botulinum
BoNT/A LC = BoNT/A LC (Clostridium botulinum, UniProt P0DPI0); test: biochemical; assay type: biochemical, C. botulinum; conditions: for inhibition at 100 µM: read-out: % of Inhibition at 100 μM
Sequence of BoNT/A LC (P0DPI0 2-448 limits assumed): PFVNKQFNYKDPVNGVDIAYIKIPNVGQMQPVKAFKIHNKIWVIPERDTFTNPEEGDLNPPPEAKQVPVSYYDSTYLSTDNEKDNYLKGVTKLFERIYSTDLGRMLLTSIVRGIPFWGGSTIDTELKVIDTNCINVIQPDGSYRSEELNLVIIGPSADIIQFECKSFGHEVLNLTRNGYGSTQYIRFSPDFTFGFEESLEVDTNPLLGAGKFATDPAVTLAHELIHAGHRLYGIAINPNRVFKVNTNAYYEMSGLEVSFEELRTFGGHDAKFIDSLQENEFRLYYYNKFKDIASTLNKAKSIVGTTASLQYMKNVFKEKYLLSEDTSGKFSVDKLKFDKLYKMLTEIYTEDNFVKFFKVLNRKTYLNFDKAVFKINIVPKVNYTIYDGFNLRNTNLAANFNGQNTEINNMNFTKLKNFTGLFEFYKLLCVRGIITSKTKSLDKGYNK

[1] = molecular target: recombinant light chain A (rLCA) (Clostridium botulinum, UniProt P0DPI0); test: biochemical; design: species or system C. botulinum
Sequence of recombinant light chain A (rLCA) (P0DPI0 2-448 limits assumed): as above

Sequence of BoNT/A (P0DPI0 whole entry, looked up): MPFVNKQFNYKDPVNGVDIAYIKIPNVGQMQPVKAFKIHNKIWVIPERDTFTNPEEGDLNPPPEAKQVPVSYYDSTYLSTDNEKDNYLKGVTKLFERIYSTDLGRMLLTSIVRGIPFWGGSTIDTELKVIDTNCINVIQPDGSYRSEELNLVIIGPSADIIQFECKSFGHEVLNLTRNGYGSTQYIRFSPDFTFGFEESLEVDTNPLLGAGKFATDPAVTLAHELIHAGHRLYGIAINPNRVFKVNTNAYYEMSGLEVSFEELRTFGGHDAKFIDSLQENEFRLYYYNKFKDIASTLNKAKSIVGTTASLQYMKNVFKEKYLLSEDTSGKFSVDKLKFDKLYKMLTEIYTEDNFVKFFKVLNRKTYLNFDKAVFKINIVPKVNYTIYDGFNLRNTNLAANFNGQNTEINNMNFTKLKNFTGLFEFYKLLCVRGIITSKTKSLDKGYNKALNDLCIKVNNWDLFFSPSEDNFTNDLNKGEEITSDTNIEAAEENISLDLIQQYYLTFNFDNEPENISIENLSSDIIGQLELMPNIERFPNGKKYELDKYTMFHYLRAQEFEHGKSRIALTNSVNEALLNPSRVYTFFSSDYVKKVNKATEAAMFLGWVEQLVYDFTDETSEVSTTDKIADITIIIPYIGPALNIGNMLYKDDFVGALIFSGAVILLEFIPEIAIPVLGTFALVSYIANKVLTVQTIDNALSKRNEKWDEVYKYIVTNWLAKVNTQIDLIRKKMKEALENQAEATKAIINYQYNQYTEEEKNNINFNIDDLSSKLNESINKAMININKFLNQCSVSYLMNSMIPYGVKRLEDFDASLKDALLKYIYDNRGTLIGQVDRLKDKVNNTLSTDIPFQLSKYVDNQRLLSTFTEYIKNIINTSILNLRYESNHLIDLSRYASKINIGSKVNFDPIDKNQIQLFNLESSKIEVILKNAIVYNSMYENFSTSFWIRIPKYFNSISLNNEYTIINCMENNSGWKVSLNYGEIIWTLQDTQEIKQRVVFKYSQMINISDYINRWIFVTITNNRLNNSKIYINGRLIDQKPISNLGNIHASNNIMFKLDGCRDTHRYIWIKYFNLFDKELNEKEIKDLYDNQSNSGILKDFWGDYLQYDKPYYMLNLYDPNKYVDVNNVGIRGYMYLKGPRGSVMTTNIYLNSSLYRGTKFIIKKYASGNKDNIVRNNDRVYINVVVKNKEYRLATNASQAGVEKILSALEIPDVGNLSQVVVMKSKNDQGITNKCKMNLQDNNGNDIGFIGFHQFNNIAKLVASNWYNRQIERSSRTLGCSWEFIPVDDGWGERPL
Sequence of LC of BoNT/A (P0DPI0 2-448 limits assumed): as the sequence (P0DPI0 2-448 limits assumed) above

Structure (SMILES) | inhibition of SNAP-25 cleavage by BoNT/A in M17 cells (BoNT/A) | inhibition of endogenous SNAP-25 cleavage in M-17-TR2 cells (BoNT/A) | Vmax (LC of BoNT/A) | type of inhibition (LC of BoNT/A) | α (LC of BoNT/A) | α′ (LC of BoNT/A) | Ki (LC of BoNT/A; Ki value) | IC50 (BoNT/A LC) [µM] | concentration at which near 100% inhibition (saturation) is reached (BoNT/A LC) | inhibition at 100 µM (BoNT/A LC) [%] | IC50 [1] [µM]
O=c1ccc2cc3c(-c4ccc([N+](=O)[O-])cc4)coc3cc2o1 [Compound 1, 3-(4-nitrophenyl)-7H-furo[3,2-g][1]benzopyran-7-one] | showed inhibition | significantly inhibit | 2.064 RFU/s and 2.79 RFU/s and 2.55 RFU/s | non-competitive inhibition | 2.76 (±1.12) and 1.38 (±0.33) and 1.8 (±0.30) | 1.705 (±0.79) and 1.155 (±0.18) and 1.24 (±0.12) | 14.2 µM and 17.5 µM and 14.7 µM | 6.5 | about 81 μM | 100 | 10
O=c1oc2c(O)c(O)cc3c(=O)oc4c(O)c(O)cc1c4c23 [Compound 2, 2,3,7,8-Tetrahydroxy-chromeno[5,4,3-cde]chromene-5,10-dione] | – | – | – | – | – | – | – | 0.65 ± 0.032 | – | 101 | 1.62
O=C1C=C2CC3(O)COc4c(ccc(O)c4O)C3=C2C=C1O (stereo not drawn) [Compound 3, 3,4,6a, 10-Tetrahydroxy-6,7-dihydroindeno[2,1-c]chromen-9-one] | – | significantly inhibit | – | – | – | – | – | 2.97 ± 0.048 | – | 92.7 | 0.86
Cc1cc2c(C(C)C)c(O)c(O)c(C=O)c2c(O)c1-c1c(C)cc2c(C(C)C)c(O)c(O)c(C=O)c2c1O [Compound 4, 2, 2′-Bis(formyl-1,6,7-trihydroxy-5-isopropyl-3-methylnaphthalene)] | – | – | – | – | – | – | – | 3.15 ± 0.043 | – | 100 | 11.4
CCCCCCCCCCCC1=C(O)C(=O)C=C(O)C1=O [Compound 5, 2,5-dihydroxy-3-undecylcyclohexa-2,5-diene-1,4-dione] | – | – | – | – | – | – | – | 4.5 ± 0.035 | – | 100 | 13.5
O=C1c2ccccc2C(=O)c2c(O)c(O)cc(O)c21 [Compound 6, 1,2,4-trihydroxyanthracene-9,10-dione] | – | significantly inhibit | – | – | – | – | – | 4.5 ± 0.0091 | – | 100 | 11.6
O=C(O)CCCCC1CCSS1 (stereo not drawn) [Compound 7, 5-(1,2-Dithiolan-3-yl)-pentanoic acid] | – | – | – | – | – | – | – | 5.06 ± 0.055 | – | 90.5 | > 20
Cc1c(C(=O)O)c(O)cc2c1C(=O)c1c(O)c([C@@H]3O[C@H](CO)[C@@H](O)[C@H](O)[C@H]3O)c(O)c(O)c1C2=O [Compound 8, carminic acid] | – | – | – | – | – | – | – | 6.8 ± 0.035 | – | 85.1 | > 20
O=c1oc2c3c4c(cc2c2c1CCC2)CCCN4CCC3 [Compound 9, 2,3,6,7,10,11-Hexahydro-1H,5H-cyclopenta[3,4][1]benzopyrano[6,7,8-ij]quinolizin-12(9H)-one] | – | significantly inhibit | – | – | – | – | – | 9.3 ± 1.59 | – | 83.3 | > 20
O=c1c(O)c(-c2ccc(O)c(O)c2)oc2c(O)c(O)cc(O)c12 [Compound 10, 2-(3,4-dihydroxyphenyl)-3,5,7,8-tetrahydroxychromen-4-one] | – | significantly inhibit | – | – | – | – | – | 0.27 ± 0.0049 | – | 104 | 0.239
